From patent US7868028B2 (priority 2002, dated 2011) come the findings set out here.

The test concerns voltage-gated sodium channel (site 1, [3H]Saxitoxin binding). On the set-up: species or system rat.

Take `Cl.N=c1n(Cc2ccc(Cl)cc2)c2ccccc2n1CC(O)COc1ccc(Cl)cc1` (stereo not drawn) [Compound 15]: the % inhibition (in general, the share of the control response that was lost under treatment) worked out at 11%.
For the compound `Cl.Cn1c(=N)n(CC(O)COc2ccccc2)c2ccccc21` (racemic) [Compound 44], the “% inhibition” value came to 27%.
Consider `Cl.Cn1c(=N)n(CC(O)c2cccs2)c2ccccc21` (stereo not drawn) [Compound 34], for which the “% inhibition” value came out at 20%.
Regarding `Cl.Cn1c(=N)n(CC(O)C23CC4CC(CC(C4)C2)C3)c2ccccc21` (stereo not drawn) [Compound 23], the “% inhibition” value is 15%.
On to `CCN(CC)CCn1c(=N)n(CC(O)COc2ccc(Cl)cc2)c2ccccc21.Cl` (racemic) [Compound 56], for which the “% inhibition” value is reported as “— (key: —: A dash (-) indicates less than 10% inhibition was observed in this test)”.
Turning to `Br.CCCCCCCCCCCn1c(=N)n(CC(O)COc2ccccc2)c2ccccc21` (racemic) [Compound 74], the “% inhibition” value was found to be 33% and the IC50 (as a rule, the point on the concentration scale where inhibition reaches its midpoint) amounted to 117 µM.
Regarding `CCCCn1c(=N)n(CC(O)c2ccc(Cl)cc2)c2ccccc21.Cl` (stereo not drawn) [Compound 53], the “% inhibition” value was “— (key: —: A dash (-) indicates less than 10% inhibition was observed in this test)”.
As to `Cl.N=c1n(CCN2CCOCC2)c2ccccc2n1CC(O)COc1ccccc1` (racemic) [Compound 33], the “% inhibition” value is reported as 20%.
Still for that read-out and setting: the value for `CCn1c(=N)n(CC(O)COc2ccc(Cl)cc2)c2ccccc21.Cl` (racemic) [Compound 21] was 13%.
For the compound `CCN(CC)CCn1c(=N)n(CC(O)COc2ccccc2)c2ccccc21.Cl` (racemic) [Compound 55], the “% inhibition” value is given as “— (key: —: A dash (-) indicates less than 10% inhibition was observed in this test)”.
Take `Cl.N=c1n(CCN2CCCCC2)c2ccccc2n1CC(O)c1ccccc1` (stereo not drawn) [Compound 30]: the “% inhibition” value is reported as 18%.
For `Br.N=c1n(CCN(Cc2ccccc2)Cc2ccccc2)c2ccccc2n1CC(O)COc1ccccc1` (racemic) [Compound 76], the “% inhibition” value is “— (key: —: A dash (-) indicates less than 10% inhibition was observed in this test)” and the concentration for half-maximal inhibition (IC50) was found to be 100 µM.
Consider `CCCn1c(=N)n(CC(O)c2ccc(C)cc2)c2ccccc21.Cl` (stereo not drawn) [Compound 60], for which the “% inhibition” value was “— (key: —: A dash (-) indicates less than 10% inhibition was observed in this test)”.
Take `Cl.N=c1n(Cc2ccc(Cl)cc2)c2ccccc2n1CC(O)COc1ccccc1` (stereo not drawn) [Compound 14]: the “% inhibition” value is reported as 16%.
Take `Cc1ccc(Cn2c(=N)n(CC(O)COc3ccc(Cl)cc3)c3ccccc32)cc1.Cl` (stereo not drawn) [Compound 52]: the “% inhibition” value was 37%.
Consider `C=CCn1c(=N)n(CC(O)COc2ccccc2)c2ccccc21.Cl` (stereo not drawn) [Compound 41], for which the “% inhibition” value was determined as 25%.
As for `Br.N=c1n(Cc2cccc3ccccc23)c2ccccc2n1CC(O)COc1ccccc1` (racemic) [Compound 73], the “% inhibition” value is “— (key: —: A dash (-) indicates less than 10% inhibition was observed in this test)” and the IC50 is 107 µM.
As to `C=CCn1c(=N)n(CC(O)c2ccc(OCC)cc2)c2ccccc21.Cl` (stereo not drawn) [Compound 49], the “% inhibition” value is recorded as 32%.
Take `Cl.N=c1n(CCN2CCCCC2)c2ccccc2n1CC(O)c1cccs1` (stereo not drawn) [Compound 38]: the “% inhibition” value worked out at 22%.
For `CCCn1c(=N)n(CC(C)O)c2ccccc21.Cl` (stereo not drawn) [Compound 61], the “% inhibition” value is “— (key: —: A dash (-) indicates less than 10% inhibition was observed in this test)”.
On to `COc1ccc(C(O)Cn2c(=N)n(Cc3ccccc3)c3ccccc32)cc1.Cl` (racemic) [Compound 47], for which the “% inhibition” value is listed as 32%.
`C=CCn1c(=N)n(CC(O)C(C)(C)C)c2ccccc21.Cl` (racemic) [Compound 36]: the “% inhibition” value is 22%.
Regarding `Br.CCCCCCCCn1c(=N)n(CC(O)COc2ccccc2)c2ccccc21` (stereo not drawn) [Compound 72], the “% inhibition” value came out at 20% and the IC50 was 66 µM.
Consider `Cl.N=c1n(CCN2CCOCC2)c2ccccc2n1CC(O)c1cccs1` (stereo not drawn) [Compound 16], for which the “% inhibition” value was determined as 17%.
As for `Cl.Cn1c(=N)n(CC(O)c2ccc(Cl)c(Cl)c2)c2ccccc21` (stereo not drawn) [Compound 13], the “% inhibition” value turned out to be 46% and the IC50 came out at 232 µM.
As to `COc1ccc(C(O)Cn2c(=N)n(CCN3CCCCC3)c3ccccc32)cc1.Cl` (stereo not drawn) [Compound 45], the “% inhibition” value is recorded as 28%.
Turning to `C=CCn1c(=N)n(CC(O)c2ccc(Cl)cc2)c2ccccc21.Cl` (racemic) [Compound 64], the “% inhibition” value is given as “— (key: —: A dash (-) indicates less than 10% inhibition was observed in this test)”.
With `Cl.Cn1c(=N)n(CC(O)c2ccccc2)c2ccccc21` (stereo not drawn) [Compound 65], the “% inhibition” value is “— (key: —: A dash (-) indicates less than 10% inhibition was observed in this test)”.
For the compound `CC(O)Cn1c(=N)n(C)c2ccccc21.Cl` (stereo not drawn) [Compound 66], the “% inhibition” value is “— (key: —: A dash (-) indicates less than 10% inhibition was observed in this test)”.
On the same count and under the same terms, the value for `CC(C)(C)C(O)Cn1c(=N)n(Cc2ccccc2)c2ccccc21.Cl` (stereo not drawn) [Compound 26] was 17%; that for `Cl.N=c1n(CCN2CCOCC2)c2ccccc2n1CC(O)c1ccco1` (racemic) [Compound 25] was 16%.
Turning to `CC(O)Cn1c(=N)n(Cc2ccccc2)c2ccccc21.Cl` (stereo not drawn) [Compound 24], the “% inhibition” value stood at 16%.
For the compound `Cl.N=c1n(Cc2ccccc2)c2ccccc2n1CC(O)c1ccco1` (stereo not drawn) [Compound 67], the “% inhibition” value is “— (key: —: A dash (-) indicates less than 10% inhibition was observed in this test)”.
For `Br.N=c1n(Cc2ccccc2)c2ccccc2n1CC(O)Cc1ccccc1` (racemic) [Compound 77], the “% inhibition” value is given as 27% and the IC50 is 81 µM.
For `C=CCn1c(=N)n(CC(O)c2ccc(Br)cc2)c2ccccc21.Cl` (racemic) [Compound 39], the “% inhibition” value is given as 24%.
Still for that read-out and setting: the value for `CCCn1c(=N)n(CC(O)c2ccc(Cl)cc2)c2ccccc21.Cl` (racemic) [Compound 48] was 32%; that for `CCCn1c(=N)n(CC(O)c2ccccc2)c2ccccc21.Cl` (stereo not drawn) [Compound 43] was 26%.
Still for that read-out and setting: the value for `Cl.N=c1n(CCN2CCCCC2)c2ccccc2n1CC(O)COc1ccc(Cl)cc1` (racemic) [Compound 40] was 24%.
Still for that read-out and setting: the value for `CC(C)(C)C(O)Cn1c(=N)n(Cc2ccc(Cl)cc2)c2ccccc21.Cl` (racemic) [Compound 59] was “— (key: —: A dash (-) indicates less than 10% inhibition was observed in this test)”; that for `COc1ccc(C(O)Cn2c(=N)n(C)c3ccccc32)cc1.Cl` (racemic) [Compound 27] was 17%; that for `CCN(CC)CCn1c(=N)n(CC(O)c2ccc(Cl)c(Cl)c2)c2ccccc21.Cl` (stereo not drawn) [Compound 42] was 25%.
As for `Cl.Cn1c(=N)n(CC(O)c2ccc(Cl)cc2)c2ccccc21` (stereo not drawn) [Compound 54], the “% inhibition” value was “— (key: —: A dash (-) indicates less than 10% inhibition was observed in this test)”.
Turning to `CCN(CC)CCn1c(=N)n(CC(O)c2ccc(C)cc2)c2ccccc21.Cl` (stereo not drawn) [Compound 28], the “% inhibition” value was 17%.
Same read-out and setting: the value for `CCn1c(=N)n(CC(O)c2cccs2)c2ccccc21.Cl` (stereo not drawn) [Compound 17] was 11%; that for `C=CCn1c(=N)n(CC(O)c2ccc(C)cc2)c2ccccc21.Cl` (racemic) [Compound 50] was 33%.
`Cl.N=c1n(CCN2CCCCC2)c2ccccc2n1CC(O)c1cccc2ccccc12` (stereo not drawn) [Compound 32]: the “% inhibition” value was 20%.
Still for that read-out and setting: next, `Cl.N=c1n(Cc2ccccc2)c2ccccc2n1CC(O)c1ccc(Br)cc1` (stereo not drawn) [Compound 63]: “— (key: —: A dash (-) indicates less than 10% inhibition was observed in this test)”.
On the same count and under the same terms, next, `CCCCn1c(=N)n(CC(O)c2ccc(Br)cc2)c2ccccc21.Cl` (racemic) [Compound 62]: “— (key: —: A dash (-) indicates less than 10% inhibition was observed in this test)”; `CCCCn1c(=N)n(CC(O)c2ccccc2)c2ccccc21.Cl` (stereo not drawn) [Compound 18]: 11%.
`CC(C)(C)c1ccc(Cn2c(=N)n(CC(O)COc3ccccc3)c3ccccc32)cc1.Cl` (stereo not drawn) [Compound 12]: the “% inhibition” value was 59% and the IC50 worked out at 34 µM.
On to `CCOc1ccc(C(O)Cn2c(=N)n(CCN3CCCCC3)c3ccccc32)cc1.Cl` (racemic) [Compound 37], for which the “% inhibition” value is listed as 22%.
Still for that read-out and setting: the value for `CCN(CC)CCn1c(=N)n(CC(O)c2ccc(OC)c(OC)c2)c2ccccc21.Cl` (racemic) [Compound 31] was 19%.
Consider `C=CCn1c(=N)n(CC(O)COc2ccc(Cl)cc2)c2ccccc21.Cl` (racemic) [Compound 46], for which the “% inhibition” value was determined as 29%.
Take `CCn1c(=N)n(CC(O)COc2ccccc2)c2ccccc21.Cl` (stereo not drawn) [Compound 19]: the “% inhibition” value is listed as 11%.
Still for that read-out and setting: next, `CCCn1c(=N)n(CC(O)COc2ccccc2)c2ccccc21.Cl` (stereo not drawn) [Compound 20]: 12%; `Cl.N=c1n(Cc2ccc(Cl)cc2)c2ccccc2n1CC(O)c1ccco1` (racemic) [Compound 68]: “— (key: —: A dash (-) indicates less than 10% inhibition was observed in this test)”; `Cl.Cn1c(=N)n(CC(O)COc2ccc(Cl)cc2)c2ccccc21` (racemic) [Compound 57]: “— (key: —: A dash (-) indicates less than 10% inhibition was observed in this test)”.
On to `CC(C)(C)C(O)Cn1c(=N)n(CCN2CCCCC2)c2ccccc21.Cl` (racemic) [Compound 69], for which the “% inhibition” value came out at 18%.
Take `CN(C)CCn1c(=N)n(CC(O)c2ccc(Cl)c(Cl)c2)c2ccccc21.Cl` (racemic) [Compound 51]: the “% inhibition” value was found to be 36%.
Take `Cl.Cn1c(=N)n(CC(O)c2cccc3ccccc23)c2ccccc21` (stereo not drawn) [Compound 58]: the “% inhibition” value was “— (key: —: A dash (-) indicates less than 10% inhibition was observed in this test)”.
As to `Cl.N=c1n(CCN2CCOCC2)c2ccccc2n1CC(O)COc1ccc(Cl)cc1` (racemic) [Compound 35], the “% inhibition” value amounted to 20%.
For `CCCn1c(=N)n(CC(O)COc2ccc(Cl)cc2)c2ccccc21.Cl` (stereo not drawn) [Compound 29], the “% inhibition” value was 18%.
